Patent EP4786452A1, “AMIDE COMPOUNDS” (China Pharmaceutical University, priority 2023, dated 2025)
Marks after values point to notes of the source that are not given here.

Tests used:
[1] = tested on: AR; experiment: AR antagonistic activity: AR / PSA ARE1 luciferase reporter gene assay in transfected LNCaP cells stimulated with 1 nM DHT; type: cell-based
Experimental: LNCaP cells were plated in a 6-well plate (Corning, 3516) at 8 × 10^5 cells/well.
Transfection reagents Lipo 3000 and P3000 (Lipofectamine™ 3000) and AR and PSA ARE1 reporter gene plasmids (Bio (Anhui) Co., Ltd.) (a total of 2.5 µg of plasmids, i.e., 1.25 µg of each plasmid, were added to each well) were left to stand and incubated at room temperature for 10 min, and then 250 µL of the above transfection reagents were added dropwise to each well containing cells.
The cells were washed with PBS, and the medium was replaced with a phenol red-free RPMI-1640 medium containing 5% carbon adsorption serum. The cells were re-plated onto a 96-well plate (Corning, 3603) according to the number of cells plated (2 × 10^4 cells/well).
After cell plating, the test compound (or DMSO or positive control) was added. After at least 30 min of incubation (incubator, 37 °C, 5% CO2), DHT (dihydrotestosterone) was added to the culture system at a final concentration of 1 nM. The culture system was then incubated in a carbon dioxide incubator. The final volume of the system in the plate was 100 µL.
Test compound: 10 mM stock solution, with a final concentration of 3.3 µM or 6.7 µM. Negative control: 0.1% DMSO. Positive control: 30 µM enzalutamide.
After the test compound (or DMSO or positive control) and DHT were co-incubated for 6 or 24 h, the luciferase signal was detected using the Vazyme Bright-Lite substrate. The medium was added at 70 µL/well, and the plate was shaken for 2 min, followed by reading of the luciferase signal.
Assay robustness was confirmed using the DMSO and low concentration control data: Ave_H = Ave (DMSO) [formula] Ave_L = Ave (30000nMenzalutamide) [formula] Inhibition rate (%) = (Ave_H−Sample)/(Ave_H−Ave_L) × 100% [formula] • Ave_H: the measurement of the negative control (0.1% DMSO); • Ave_L: the measurement of the positive control (30 µM enzalutamide); • Sample: the measurement of the test compound;

[2] = in vitro; conditions: mouse, blood, Half-life T 1/2 in CD-1 mouse whole blood
Experimental: (§1) 1 mM stock solutions of the test compounds were prepared in DMSO, and a 1 mM stock solution of the reference compound propantheline was prepared in acetonitrile.
(§2) 4 µL of test compound stock solution (or reference compound stock solution) was added to 796 µL of pre-incubated whole blood (CD-1 mouse whole blood or human whole blood) at a final concentration of 5 µM. The final concentration of the solvent was 0.5%. At different time points (including 5 min, 15 min, 30 min, 60 min, and 120 min), a 50 µL aliquot of the whole blood containing the sample was added to a new tube and incubated in a 37 °C water bath with shaking at 60 rpm. The treatment was performed in duplicate. At designated time points, 300 µL of room-temperature quenching solution (a solution of acetonitrile containing internal standards (100 nM alprazolam, 500 nM labetalol, and 2 µM ketoprofen)) was added to the whole blood sample containing the sample to terminate the reaction. 50 µL of whole blood containing the sample was added to a new tube containing 300 µL of room-temperature quenching solution to prepare a sample at 0 min. All samples were vortexed for 5 min. The samples in the plate were centrifuged at 3220 g for 30 min at 4 °C to precipitate the proteins. 100 µL of the supernatant was transferred to a new 96-well plate containing 100 µL of water for LC-MS/MS analysis.
(§3) The peak area ratio was determined by using an extracted ion chromatogram. The proportion of remaining compound at each time point was calculated according to the following formula: Remaining proportion t min (%) = peak area ratio t min / peak area ratio 0 min × 100% [formula] • Peak area ratio t min: peak area ratio of reference compound to test compound at t min; • Peak area ratio 0 min: peak area ratio of reference compound to test compound at time zero.
(§4) The slope value was determined by linear regression on the curve of the natural logarithm of the remaining proportion of the test compound versus the incubation time.
(§5) Determination of in vitro half-life (in vitro t1/2) from the slope value: in vitro t1/2 = 0.693/k [formula] in the formula, k is the rate constant (k = -slope value)

[3] = human, microsomes, 1 µM, pH 7.4
Experimental: (§6) The metabolic stability of compounds disclosed herein in liver microsomes was determined using the following method.
(§7) Liver microsome source: Human liver microsome (Corning, 452117) • 2. Na2HPO4 (Tianjin Guangfu Fine Chemical Research Institute, 20180130) • 3. KH2PO4 (Tianjin Guangfu Fine Chemical Research Institute, 20180920) • 4. MgCl2 (Tianjin Guangfu Fine Chemical Research Institute, 20191216) • 5. NADPH (Solarbio, 1216C022) • 6. Positive control compound: verapamil (Sigma, MKBV4993V) • 7. AB Sciex Triple Quad 4000 liquid chromatography-mass spectrometry system
(§8) Preparation of 100 mM phosphate-buffered saline (PBS): 7.098 g Na2HPO4 was dissolved in 500 mL of purified water by sonication to give solution A. 3.400 g of KH2PO4 was dissolved in 250 mL of purified water by sonication to give solution B. Solution A was placed on a stirrer, and solution B was added slowly until the pH reached 7.4, so as to give a 100 mM PBS buffer. […] Preparation of reaction system The reaction system was prepared according to the table below.
(§9) The reaction system was pre-incubated in a 37 °C water bath for 10 min. 40 µL of 10 mM NADPH solution (in 100 mM phosphate-buffered saline) was added to the reaction system, with the final NADPH concentration being 1 mM. A negative control was prepared by replacing the NADPH solution with 40 µL of phosphate-buffered saline. The negative control was used to exclude the effect of the chemical stability of the compound itself. […] The reaction was initiated by adding 4 µL of 100 µM compound disclosed herein or positive control compound verapamil to the reaction system at a final concentration of 1 µM. […] After 0.5 min, 15 min, 30 min, 45 min, and 60 min of mixing well by using a vortex oscillator, 50 µ L of the incubated sample was taken out, and glacial acetonitrile containing an internal standard of 4 folds was added to terminate the reaction. The sample was centrifuged at 3,220 g for 45 min. 90 µL of the supernatant was transferred to a feeding plate after the centrifugation was completed, and 90 µL ultrapure water was added. The mixture was well mixed for LC-MS/MS analysis.
(§10) All data were calculated by using Microsoft Excel software. The peak areas were determined by using an extracted ion chromatogram. The in vitro half-life (T1/2) of the test compound was determined by linear fitting of the natural logarithm of the elimination proportion of the test compound over time. In vitro half-life (T1/2) was calculated by the slope k: in vitro T1/2 = 0.693/k [formula]
(§11) The in vitro intrinsic clearance (in vitro CLint, unit: µL/min/mg protein) was calculated using the following formula: in vitro CLint = k × volume of incubation solution/enzyme protein content; [formula]

[4] = in vitro; conditions: human, blood, Half-life T 1/2 in human whole blood
Experimental: as §1, §2, §3, §4, §5

[5] = 5 µM
Experimental: as §1, §2, §3, §4, §5

[6] = 5 µM; remark: listed apart in the source
Experimental: as §1, §2, §3, §4, §5

[7] = in vitro; conditions: human, microsomes; for microsomal CLint at 1 µM: pH 7.4, In vitro Clint; for half-life at 1 µM: pH 7.4, In vitro T1/2
Experimental: as §6, §7, §8, §9, §10, §11

[8] = mouse, in vivo
Text: Treatment: On day 3 after shaving, the mice were grouped for treatment. […] The control group received the vehicle. 12 mice were in each group.

[9] = tested on: C57BL/6 mice; experiment: In vivo pharmacodynamic study: hair growth scoring in shaved telogen-phase mice; conditions: for Score (mean±SD): hair growth score 0-5, 0.5 wt% applied to shaved area twice daily
Text: Vehicle: propylene glycol/ethanol (30:70, v/v)
Animal information: C57BL/6 mice (male, aged 6 weeks, about 18-20 g), purchased from Shanghai Lingchang Biotechnology Co., Ltd. The mice were bred in an SPF-level environment within independently ventilated cages. All animals had free access to a certified, commercial standard laboratory diet and drinking water.
Skin preparation: After 1-2 weeks of acclimation, the hairs in a 2 cm × 3 cm area of the back of the mice were shaved to confirm that the hairs of the mice were in the telogen phase (the skin was pink) and the skin was not damaged.
The control group received the vehicle. 12 mice were in each group.
The scoring criteria are as follows: • 0: no growth, with pink skin in the shaved area; • 1: the skin in the shaved area was gray (an increase of less than 20%); • 2: the skin in the shaved area was black (more than 20% but less than 40%); • 3: the skin in the shaved area was black with a little hair growth (more than 40% but less than 60%); • 4: the skin in the shaved area was black with partial hair growth (more than 60% but less than 80%); • 5: basically complete hair growth (80%-100% growth) in the shaved area.

[10] = incubation time: 24 h, test concentration: 3.3 µM, LNCaP cells, 1 nM DHT, normalised to 0.1% DMSO and 30 µM enzalutamide

CCOC(=O)CCCC(C)(O)C(=O)Nc1cnc(C#N)c(C(F)(F)F)c1 (single isomer, unassigned) [Compound 005]
AR antagonism (inhibition rate, %) ([1]; 6 h, 6.7 µM): 92.96^b % | half-life at 5 µM [2]: 3.54 min | In vitro Clint [3]: 670.7 µL/min/mg protein | In vitro T1/2 [3]: 2.1 min | half-life at 5 µM [4]: 119 min

CCOC(=O)CCCC(C)(O)C(=O)Nc1cnc(C#N)c(C(F)(F)F)c1 (single isomer, unassigned) [Compound 006]
AR antagonism (inhibition rate, %) ([1]; 24 h, 3.3 µM): 88.13^a % | AR antagonism (inhibition rate, %) ([1]; 24 h, 6.7 µM): 90.51^c % | Half-life T 1/2 in human whole blood [5]: 183.42 min | In vitro Clint [3]: 199.5 µL/min/mg protein | In vitro T1/2 [3]: 6.9 min | Half-life T 1/2 in CD-1 mouse whole blood [6]: 3.61 min

COC(=O)CCCC(C)(O)C(=O)Nc1cnc(C#N)c(C(F)(F)F)c1 (single isomer, unassigned) [Compound 007]
microsomal CLint at 1 µM [7]: 226 µL/min/mg | half-life at 1 µM [7]: 6.1 min | AR antagonism (inhibition rate, %) ([1]; 24 h, 6.7 µM): 100.00^c % | half-life at 5 µM [2]: 2.7 min | half-life at 5 µM [4]: 82.7 min

COC(=O)CCCC(C)(O)C(=O)Nc1cnc(C#N)c(C(F)(F)F)c1 (single isomer, unassigned) [Compound 008]
AR antagonism (inhibition rate, %) ([1]; 6 h, 6.7 µM): 92.41^b % | Half-life T 1/2 in human whole blood [5]: 141.44 min | In vitro Clint [3]: 131.2 µL/min/mg protein | In vitro T1/2 [3]: 10.6 min | Half-life T 1/2 in CD-1 mouse whole blood [6]: 3.94 min

CC(C)OC(=O)CCCC(C)(O)C(=O)Nc1cnc(C#N)c(C(F)(F)F)c1 (single isomer, unassigned) [Compound 009]
microsomal CLint at 1 µM [7]: 234 µL/min/mg | half-life at 1 µM [7]: 5.9 min | AR antagonism (inhibition rate, %) ([1]; 24 h, 6.7 µM): 97.66^c % | half-life at 5 µM [2]: 10 min | half-life at 5 µM [4]: 210 min

CC(C)OC(=O)CCCC(C)(O)C(=O)Nc1cnc(C#N)c(C(F)(F)F)c1 (single isomer, unassigned) [Compound 010]
signs of erythema, dehiscence, desquamation on the skin [8]: no signs of erythema, dehiscence, desquamation | AR antagonism (inhibition rate, %) ([1]; 24 h, 6.7 µM): 85.37^c % | Score (mean±SD) ([9]; Day 0): 0 | Score (mean±SD) ([9]; Day 10): 0.2±0.4 | Score (mean±SD) ([9]; Day 13): 0.2±0.4 | Score (mean±SD) ([9]; Day 16): 0.3±0.5 | Score (mean±SD) ([9]; Day 20): 0.7±0.7 | Score (mean±SD) ([9]; Day 23): 0.8±0.6 | Score (mean±SD) ([9]; Day 27): 1.1±0.7 | Score (mean±SD) ([9]; Day 32, ** P < 0.01 vs. vehicle control group): 1.9±0.7** | effect on hair growth ([9]; mice with telogen hair growth, 0.5 wt%, BID topically at 20 µL/cm^2, P < 0.01 from day 32): significant promoting effect on hair growth | Half-life T 1/2 in human whole blood [5]: 351.20 min | In vitro Clint [3]: 124.8 µL/min/mg protein | In vitro T1/2 [3]: 11.1 min | Half-life T 1/2 in CD-1 mouse whole blood [6]: 5.97 min

CCOC(=O)CCCC(C)(O)C(=O)Nc1cnc(C#N)c(SC)c1 (single isomer, unassigned) [Compound 013]
microsomal CLint at 1 µM [7]: 487 µL/min/mg | half-life at 1 µM [7]: 2.8 min | half-life at 5 µM [2]: < 0.5 min | half-life at 5 µM [4]: 118 min

COC(=O)CCCC(C)(O)C(=O)Nc1cnc(C#N)c(SC)c1 (single isomer, unassigned) [Compound 015]
AR antagonism (inhibition rate, %) ([1]; 24 h, 3.3 µM): 92.46^a % | Half-life T 1/2 in human whole blood [5]: 164.02 min | In vitro Clint [3]: 270.78 µL/min/mg protein | In vitro T1/2 [3]: 5.12 min | Half-life T 1/2 in CD-1 mouse whole blood [6]: 4.34 min

COC(=O)CCCC(C)(O)C(=O)Nc1cnc(C#N)c(SC)c1 (single isomer, unassigned) [Compound 016]
Half-life T 1/2 in human whole blood [5]: 70.19 min | In vitro Clint [3]: 1216.15 µL/min/mg protein | In vitro T1/2 [3]: 1.14 min | Half-life T 1/2 in CD-1 mouse whole blood [6]: 9.44 min

CSc1cc(NC(=O)C(C)(O)CCCC(=O)OC(C)C)cnc1C#N (single isomer, unassigned) [Compound 017]
microsomal CLint at 1 µM [7]: 243 µL/min/mg | half-life at 1 µM [7]: 5.7 min | half-life at 5 µM [2]: 4.64 min | half-life at 5 µM [4]: 206 min

CSc1cc(NC(=O)C(C)(O)CCCC(=O)OC(C)C)cnc1C#N (single isomer, unassigned) [Compound 018]
AR antagonism (inhibition rate, %) ([1]; 24 h, 6.7 µM): 63.12^c % | Half-life T 1/2 in human whole blood [5]: 194.81 min | In vitro Clint [3]: 247.8 µL/min/mg protein | In vitro T1/2 [3]: 5.6 min | Half-life T 1/2 in CD-1 mouse whole blood [6]: 4.93 min

CC(O)(CCCCO)C(=O)Nc1cnc(C#N)c(C(F)(F)F)c1 (centres unmarked) [Compound 001, N-[6-cyano-5-(trifluoromethyl)pyridin-3-yl]-2,6-dihydroxy-2-methyl-hexanamide]
AR antagonism (inhibition rate, %) [1, 10]: 87.89^a %

CC(O)(CCO)C(=O)Nc1cnc(C#N)c(C(F)(F)F)c1 (centres unmarked) [Compound 002, N-[6-cyano-5-(trifluoromethyl)pyridin-3-yl]-2,4-dihydroxy-2-methylbutanamide]
AR antagonism (inhibition rate, %) [1, 10]: 59.75^a %

CCOC(=O)CCC[C@](C)(O)C(=O)Nc1cnc(C#N)c(SC)c1 [Compound 014, ethyl (6S)/(6R)-6-((6-cyano-5-(methylthio)pyridin-3-yl)amino)-5-hydroxy-5-methyl-6-oxohexanoate]
AR antagonism (inhibition rate, %) ([1]; incubation time: 24 h, test concentration: 6.7 µM, LNCaP cells, 1 nM DHT, normalised to 0.1% DMSO and 30 µM enzalutamide): 64.39^c % | Half-life T 1/2 in human whole blood [5]: 89.49 min | Half-life T 1/2 in CD-1 mouse whole blood [6]: 1.13 min

CSc1cc(NC(=O)C(C)(O)CCCC(=O)OC(C)(C)C)cnc1C#N (centres unmarked) [Compound 019, tert-butyl 6-((6-cyano-5-(methylthio)pyridin-3-yl)amino)-5-hydroxy-5-methyl-6-oxohexanoate]
AR antagonism (inhibition rate, %) ([1]; incubation time: 6 h, test concentration: 6.7 µM, LNCaP cells, 1 nM DHT, normalised to 0.1% DMSO and 30 µM enzalutamide): 57.98^b %

CCOC(=O)CCCC(C)(O)C(=O)Nc1cnc(C#N)c([Se]C)c1 (centres unmarked) [Compound 024, Ethyl 6-[(6-cyano-5-methylselanylpyridin-3-yl)amino]-5-hydroxy-5-methyl-6-oxohexanoate]
AR antagonism (inhibition rate, %) [1, 10]: 88.18^a %

CCOC(=O)CCCCC(C)(O)C(=O)Nc1cnc(C#N)c(C(F)(F)F)c1 (centres unmarked) [Compound 027, Ethyl 7-((6-cyano-5-(trifluoromethyl)pyridin-3-yl)amino)-6-hydroxy-6-methyl-7-oxoheptanoate]
AR antagonism (inhibition rate, %) [1, 10]: 76.55^a %

CCOC(=O)CCCC(C)(O)C(=O)Nc1ccc(C#N)c(SC)c1 (centres unmarked) [Compound 029, Ethyl 6-(4-cyano-3-methylthio-anilino)-5-hydroxy-5-methyl-6-oxohexanoate]
AR antagonism (inhibition rate, %) [1, 10]: 98.41^a %

CCOC(=O)CCCC(C)(O)C(=O)Nc1ccc(C#N)c(OC)c1 (centres unmarked) [Compound 030, Ethyl 6-(4-cyano-3-methoxy-anilino)-5-hydroxy-5-methyl-6-oxohexanoate]
AR antagonism (inhibition rate, %) [1, 10]: 98.45^a %

CSc1cc(NC(=O)C(O)CCCC(=O)OC(C)C)cnc1C#N (centres unmarked) [Compound 032, Isopropyl 6-((6-cyano-5-(methylthio)pyridin-3-yl)amino)-5-hydroxy-6-oxohexanoate]
AR antagonism (inhibition rate, %) [1, 10]: 92.25^a %
